Experimental data as given in ChEMBL document CHEMBL1201862, “PubChem BioAssay data set” (2004).
Activity calls are given as the source filed them.

Tests used:
Troponin, cardiac muscle = Troponin, cardiac muscle (Homo sapiens, UniProt P19429+P45379+P63316); assay: Fluorescence-based biochemical high throughput dose response assay for activators of the calcium sensitivity of cardiac Regulated Thin Filaments (RTF). [Related pubchem assays (depositor defined):AID493008, AID493018, AID504382, AID504383]; format: protein-complex assay
Bcl-2-related protein A1 = target: T1, Bcl-2-related protein A1 (Mus musculus, UniProt Q07440); format: functional;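 further: confirmatory dose–response counterscreen on Bfl-1, used to check hits from a UBC13 polyubiquitin inhibitor campaign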
T1 sequence (Q07440 whole entry): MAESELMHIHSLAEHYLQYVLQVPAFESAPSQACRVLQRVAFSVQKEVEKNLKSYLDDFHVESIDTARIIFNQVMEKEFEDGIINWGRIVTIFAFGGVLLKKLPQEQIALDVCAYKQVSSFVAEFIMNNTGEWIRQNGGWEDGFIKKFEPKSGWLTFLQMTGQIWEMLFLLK

[1] = target: T2, Ubiquitin-conjugating enzyme E2 N (Homo sapiens, UniProt P61088); format: functional
T2 sequence (P61088 whole entry): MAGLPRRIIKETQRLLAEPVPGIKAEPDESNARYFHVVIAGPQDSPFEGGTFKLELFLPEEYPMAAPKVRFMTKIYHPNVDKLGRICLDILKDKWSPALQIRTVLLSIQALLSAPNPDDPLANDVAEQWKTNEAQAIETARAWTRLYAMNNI

[2] = target: T2, Ubiquitin-conjugating enzyme E2 N; format: functional; remark: listed apart in the source
[3] = target: T3, RNA-binding protein pos-1 (Caenorhabditis elegans, UniProt G5EF15); assay: disruptors of C. elegans POS-1 RNA interaction – biochemical, fluorescence polarization, dose response (AID 1964);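 further: purified POS-1 fused to maltose binding protein made in E. coli; potency of compounds blocking POS-1 binding to fluorescent RNA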
T3 sequence (G5EF15 whole entry): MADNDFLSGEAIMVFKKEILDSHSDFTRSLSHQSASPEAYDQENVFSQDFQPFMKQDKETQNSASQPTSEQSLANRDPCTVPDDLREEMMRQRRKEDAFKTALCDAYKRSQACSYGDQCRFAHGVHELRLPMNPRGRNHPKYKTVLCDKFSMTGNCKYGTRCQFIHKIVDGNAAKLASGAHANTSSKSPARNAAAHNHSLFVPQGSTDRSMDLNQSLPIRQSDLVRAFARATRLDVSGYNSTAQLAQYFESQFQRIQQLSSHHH

[4] = target: T4, Zinc finger protein mex-5 (Caenorhabditis elegans, UniProt Q9XUB2); assay: potency of MEX-5 RNA-binding blockers – biochemical, C. elegans, fluorescence polarization, dose response (AID 1960)
T4 sequence (Q9XUB2 whole entry): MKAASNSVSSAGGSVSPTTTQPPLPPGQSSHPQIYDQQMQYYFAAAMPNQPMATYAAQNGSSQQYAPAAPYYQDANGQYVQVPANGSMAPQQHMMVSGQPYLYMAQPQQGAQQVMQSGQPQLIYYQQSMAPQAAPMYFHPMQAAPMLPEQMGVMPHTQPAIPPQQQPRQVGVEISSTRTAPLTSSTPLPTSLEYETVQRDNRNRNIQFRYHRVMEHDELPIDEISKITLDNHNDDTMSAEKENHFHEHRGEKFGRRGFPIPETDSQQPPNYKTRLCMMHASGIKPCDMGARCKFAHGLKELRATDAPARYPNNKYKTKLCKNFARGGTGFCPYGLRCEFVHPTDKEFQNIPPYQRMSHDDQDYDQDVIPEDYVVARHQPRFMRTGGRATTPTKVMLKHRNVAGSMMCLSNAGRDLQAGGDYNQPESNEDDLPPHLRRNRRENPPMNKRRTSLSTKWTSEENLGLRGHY

Cytochrome P450 2C19 = Cytochrome P450 2C19 (Homo sapiens, UniProt P33261); assay: Cytochrome panel assay with activity outcomes. Panel member name: p450-cyp2c19 Compounds with AC50 equal or less than 10 uM are considered active; format: functional; conditions: read-out: AC50
Chain of Cytochrome P450 2C19 (P33261 whole entry): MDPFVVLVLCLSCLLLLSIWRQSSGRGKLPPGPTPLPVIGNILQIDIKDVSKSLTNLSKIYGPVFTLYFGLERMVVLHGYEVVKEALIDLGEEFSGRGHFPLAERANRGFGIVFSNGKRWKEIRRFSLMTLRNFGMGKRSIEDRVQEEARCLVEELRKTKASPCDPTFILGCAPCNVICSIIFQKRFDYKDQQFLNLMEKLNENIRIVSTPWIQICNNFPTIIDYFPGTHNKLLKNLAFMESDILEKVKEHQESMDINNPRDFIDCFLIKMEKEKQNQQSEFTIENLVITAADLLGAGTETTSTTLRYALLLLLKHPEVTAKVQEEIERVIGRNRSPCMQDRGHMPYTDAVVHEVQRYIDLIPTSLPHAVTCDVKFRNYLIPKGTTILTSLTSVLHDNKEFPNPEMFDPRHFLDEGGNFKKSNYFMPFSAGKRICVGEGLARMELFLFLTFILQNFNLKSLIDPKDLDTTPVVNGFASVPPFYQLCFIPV

[5] = target: T5, Corticotropin-releasing factor receptor 2/Corticotropin-releasing factor-binding protein (Homo sapiens, UniProt P24387+Q13324); assay: activators of CRF receptor 2 with binding protein – uHTS hits, confirmation (AID 602473); format: functional; conditions: read-out: EC50_Mean
T5 sequence (Q13324 whole entry): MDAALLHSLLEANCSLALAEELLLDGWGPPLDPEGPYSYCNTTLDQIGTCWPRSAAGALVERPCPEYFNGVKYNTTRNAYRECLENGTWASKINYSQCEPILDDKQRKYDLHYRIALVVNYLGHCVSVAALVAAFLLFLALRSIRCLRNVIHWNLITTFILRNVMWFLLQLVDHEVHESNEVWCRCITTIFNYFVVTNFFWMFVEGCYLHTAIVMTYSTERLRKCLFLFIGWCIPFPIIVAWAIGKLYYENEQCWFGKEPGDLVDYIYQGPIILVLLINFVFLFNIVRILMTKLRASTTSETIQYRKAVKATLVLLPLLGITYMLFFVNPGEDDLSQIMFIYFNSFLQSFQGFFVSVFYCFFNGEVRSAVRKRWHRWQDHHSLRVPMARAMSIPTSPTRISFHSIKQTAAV
T5 sequence (P24387 whole entry): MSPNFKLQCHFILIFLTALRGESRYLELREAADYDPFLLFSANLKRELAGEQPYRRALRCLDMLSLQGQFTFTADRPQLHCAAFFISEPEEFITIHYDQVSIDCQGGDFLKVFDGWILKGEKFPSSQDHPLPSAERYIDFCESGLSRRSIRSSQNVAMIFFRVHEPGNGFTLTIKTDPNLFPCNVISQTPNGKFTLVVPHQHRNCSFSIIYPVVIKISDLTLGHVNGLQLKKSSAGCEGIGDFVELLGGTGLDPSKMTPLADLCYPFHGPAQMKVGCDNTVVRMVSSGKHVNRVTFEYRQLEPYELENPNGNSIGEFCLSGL

Cytochrome P450 1A2 = target: T6, Cytochrome P450 1A2 (Homo sapiens, UniProt P05177);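 further: PubChem cytochrome P450 panel assay, CYP1A2 panel member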
T6 sequence (P05177 whole entry): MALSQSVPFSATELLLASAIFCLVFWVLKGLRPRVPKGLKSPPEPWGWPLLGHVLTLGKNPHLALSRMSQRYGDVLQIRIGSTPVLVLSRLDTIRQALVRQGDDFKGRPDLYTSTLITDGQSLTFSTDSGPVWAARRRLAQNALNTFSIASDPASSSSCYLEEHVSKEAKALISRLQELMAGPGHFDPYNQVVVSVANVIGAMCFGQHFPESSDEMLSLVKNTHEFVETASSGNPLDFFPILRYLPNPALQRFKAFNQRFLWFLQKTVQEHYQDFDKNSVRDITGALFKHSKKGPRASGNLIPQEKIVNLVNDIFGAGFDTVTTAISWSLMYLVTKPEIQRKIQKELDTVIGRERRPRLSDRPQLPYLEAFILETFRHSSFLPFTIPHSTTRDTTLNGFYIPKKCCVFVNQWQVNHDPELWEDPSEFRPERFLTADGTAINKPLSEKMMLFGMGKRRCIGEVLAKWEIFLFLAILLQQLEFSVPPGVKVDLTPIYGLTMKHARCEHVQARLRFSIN

Cytochrome P450 2C9 = Cytochrome P450 2C9 (Homo sapiens, UniProt P11712)
Chain of Cytochrome P450 2C9 (P11712 whole entry): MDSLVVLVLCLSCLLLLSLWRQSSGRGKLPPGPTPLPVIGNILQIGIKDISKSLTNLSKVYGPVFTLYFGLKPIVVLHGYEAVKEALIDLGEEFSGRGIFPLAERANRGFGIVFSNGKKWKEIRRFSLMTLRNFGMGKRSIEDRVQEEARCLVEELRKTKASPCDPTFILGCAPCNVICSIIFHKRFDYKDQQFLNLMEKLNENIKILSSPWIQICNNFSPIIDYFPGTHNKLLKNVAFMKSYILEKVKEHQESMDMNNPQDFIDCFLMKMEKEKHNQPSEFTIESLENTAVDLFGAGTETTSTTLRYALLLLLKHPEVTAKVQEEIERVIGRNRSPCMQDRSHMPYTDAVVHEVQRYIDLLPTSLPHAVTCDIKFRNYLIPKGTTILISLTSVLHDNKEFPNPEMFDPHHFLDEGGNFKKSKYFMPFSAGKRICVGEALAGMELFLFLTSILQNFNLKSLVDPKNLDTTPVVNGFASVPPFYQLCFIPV

[6] = target: DNA dC->dU-editing enzyme APOBEC-3A (Homo sapiens, UniProt P31941); assay: Dose Response confirmation of small molecule APOBEC3A DNA Deaminase Inhibitors via a fluorescence-based single-stranded DNA deaminase assay. [Related pubchem assays (depositor defined):AID493011, AID493024]; format: functional
Chain of DNA dC->dU-editing enzyme APOBEC-3A (P31941 whole entry): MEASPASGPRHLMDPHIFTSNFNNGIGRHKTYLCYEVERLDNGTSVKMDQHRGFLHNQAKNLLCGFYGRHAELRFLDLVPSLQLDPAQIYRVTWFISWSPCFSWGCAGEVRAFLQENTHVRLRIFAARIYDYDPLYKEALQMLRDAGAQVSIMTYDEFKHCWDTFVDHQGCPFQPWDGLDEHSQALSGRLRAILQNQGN

[7] = target: DNA dC->dU-editing enzyme APOBEC-3G (Homo sapiens, UniProt Q9HC16); format: functional;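 further: Dose-response counterscreen measuring inhibition of APOBEC3G DNA deaminase activity, run while confirming APOBEC3A inhibitors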
Chain of DNA dC->dU-editing enzyme APOBEC-3G (Q9HC16 whole entry, the tested form may be a part): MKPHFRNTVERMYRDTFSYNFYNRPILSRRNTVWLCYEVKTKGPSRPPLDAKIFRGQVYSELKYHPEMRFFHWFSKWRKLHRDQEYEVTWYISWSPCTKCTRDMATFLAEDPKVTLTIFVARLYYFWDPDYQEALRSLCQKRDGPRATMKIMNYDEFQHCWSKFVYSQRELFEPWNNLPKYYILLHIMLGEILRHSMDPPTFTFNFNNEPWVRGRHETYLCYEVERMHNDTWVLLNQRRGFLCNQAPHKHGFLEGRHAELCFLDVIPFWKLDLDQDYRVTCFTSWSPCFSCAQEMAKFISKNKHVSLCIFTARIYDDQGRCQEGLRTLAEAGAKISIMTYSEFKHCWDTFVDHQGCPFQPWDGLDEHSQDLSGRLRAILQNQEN

[8] = target: T7, Carboxy-terminal domain RNA polymerase II polypeptide A small phosphatase 1 (Homo sapiens, UniProt Q9GZU7); assay: CTDSP1 inhibitors, concentration-response, biochemical, absorbance readout, ultra-high-throughput screen actives (AID 540297); format: functional
T7 sequence (Q9GZU7 whole entry): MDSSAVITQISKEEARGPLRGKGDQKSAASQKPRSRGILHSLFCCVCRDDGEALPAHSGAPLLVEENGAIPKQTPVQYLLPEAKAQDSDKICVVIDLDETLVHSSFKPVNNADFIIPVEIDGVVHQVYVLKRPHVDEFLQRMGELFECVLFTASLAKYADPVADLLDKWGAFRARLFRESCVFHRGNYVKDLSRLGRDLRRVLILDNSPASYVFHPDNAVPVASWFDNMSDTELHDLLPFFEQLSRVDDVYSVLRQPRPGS

Caspase-6 = target: T8, Caspase-6 (Homo sapiens, UniProt P55212); assay: inhibition of CASP6 peptide cleavage – biochemical, VEID-R110 fluorescence, cherry-pick, dose response (AID 720632)
T8 sequence (P55212 whole entry): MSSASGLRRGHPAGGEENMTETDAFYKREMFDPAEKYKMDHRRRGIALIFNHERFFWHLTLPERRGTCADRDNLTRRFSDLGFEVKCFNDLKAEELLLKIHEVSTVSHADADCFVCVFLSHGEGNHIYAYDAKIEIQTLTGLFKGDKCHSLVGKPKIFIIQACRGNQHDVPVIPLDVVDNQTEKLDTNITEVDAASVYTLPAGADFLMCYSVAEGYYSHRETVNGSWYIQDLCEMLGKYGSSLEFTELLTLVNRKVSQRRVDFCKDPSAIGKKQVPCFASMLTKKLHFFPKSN

[9] = decrease of insulin promoter-GFP reporter – imaging, high-content screening, mouse beta cells (AID 1628); format: functional; conditions: MIN6
[10] = MIN6 cell viability loss – mouse insulinoma, cytotoxicity control, dose response (AID 2122); format: functional;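 further: confirmatory high-throughput counterscreen run to flag cytotoxic compounds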
[11] = Trypanosoma cruzi growth suppression in host cells – NIH3T3 host cells, beta-gal luminescence, confirmation (AID 2044); format: functional, cell-based;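 further: intracellular parasites grown in NIH/3T3 mouse fibroblasts as host cells; luminescent beta-galactosidase reporter signal from transgenic T. cruzi replicating inside host cells; inhibitors lower the luminescence signal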
[12] = NIH3T3 cell viability loss – ATP luminescence, mouse fibroblasts, counter-screen, dose response (AID 2010); format: functional, cell-based;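 further: cells exposed to compound for about 90 hours before reading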
Vero [13] = assay: cells; format: functional, cell-based; conditions: Chlorocebus sabaeus
Vero [14] = assay: cells; format: functional; conditions: Chlorocebus sabaeus
[15] = target: T9, Microphthalmia-associated transcription factor (Homo sapiens, UniProt O75030); assay: reducers of TRPM1 reporter luminescence, concentration series – cell-based, SK-MEL-5, cherry-picked, set 3, MITF inhibitor project, dose response (AID 493073); format: functional;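 further: SK-MEL-5 melanoma cells with luciferase driven by the MITF target TRPM1 promoter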
T9 sequence (O75030 whole entry): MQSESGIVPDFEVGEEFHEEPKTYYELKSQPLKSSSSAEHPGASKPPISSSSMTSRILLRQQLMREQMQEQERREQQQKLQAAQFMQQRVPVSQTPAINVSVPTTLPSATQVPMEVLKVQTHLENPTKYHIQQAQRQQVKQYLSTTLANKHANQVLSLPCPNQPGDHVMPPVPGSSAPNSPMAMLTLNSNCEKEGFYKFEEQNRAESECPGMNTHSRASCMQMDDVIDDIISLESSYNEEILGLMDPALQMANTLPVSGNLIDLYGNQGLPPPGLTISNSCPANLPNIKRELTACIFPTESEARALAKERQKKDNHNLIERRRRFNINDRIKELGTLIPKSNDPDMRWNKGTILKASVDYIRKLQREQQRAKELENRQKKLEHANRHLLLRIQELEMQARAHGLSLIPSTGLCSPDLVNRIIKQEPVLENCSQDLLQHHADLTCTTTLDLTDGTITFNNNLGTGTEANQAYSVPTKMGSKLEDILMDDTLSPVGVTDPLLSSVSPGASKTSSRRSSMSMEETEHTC

[16] = reduction of Shn3 3'UTR-driven luciferase in osteoblasts – cell-based, Clone20 osteoblasts, firefly luciferase, cherry-picked, dose response (AID 624132); format: functional;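 further: firefly luciferase luminescence from reporter carrying the Shn3 3'UTR in osteoblasts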
[17] = loss of viability in HepG2 cells – cell-based, CellTiter-Glo, cherry-picked, cytotoxicity control for Shn3 inhibitor project, dose response (AID 624134); format: functional
[18] = non-specific 3'UTR reporter inhibition in Clone20-Shn3RL – cell-based, Renilla luciferase, cherry-picked, counter-screen for Shn3 inhibitor project, dose response (AID 624133); format: functional

O=C(/C=C/c1cn(CC(O)CN2CCCCC2)c2ccccc12)c1cccs1 (centres undefined)
EC50 (Troponin, cardiac muscle): 17.9 µM (inactive)

CCN(Cc1ccccc1)S(=O)(=O)c1ccc(C(=O)N(CCCN(C)C)c2nc3cc4c(cc3s2)OCCO4)cc1
IC50 (Bcl-2-related protein A1): > 20 µM (inactive) | IC50 [1]: 2.81 µM (active) | IC50 [2]: 2.93 µM (active)

COc1ccc(C(=O)Nc2cc(C(C)=O)c(/C=C/N(C)C)oc2=O)cc1
EC50 [3]: 54.1 µM (active) | EC50 [4]: 54.8 µM (active) | EC50 (Troponin, cardiac muscle): 10.5 µM (inactive) | AC50 (Cytochrome P450 2C19): 10 µM (inconclusive) | EC50 [5]: 6.69 µM (active) | AC50 (Cytochrome P450 1A2): 15.8 µM (inconclusive) | AC50 (Cytochrome P450 2C9): 22.4 µM (inconclusive)

O=C1C2C(C(=O)N1/N=C/c1cc([N+](=O)[O-])c(O)cc1O)C1C=CC2C12CC2 (centres undefined)
IC50 [6]: 11.3 µM (active) | IC50 [7]: 40.2 µM (active) | IC50 [8]: 4.9 µM (active) | AC50 (Caspase-6): 3.41 µM (active)

CC(C)Cn1cnc2c(c(-c3ccccc3)c(-c3ccccc3)n2Cc2ccco2)c1=N
IC50 [9]: 1.69 µM (active) | IC50 [10]: 2.88 µM (active) | EC50 [11]: 0.879 µM (active) | EC50 [12]: 8.39 µM (active)

CCn1c(=O)c2nc(Cl)[nH]c2n(CC)c1=O
IC50 (Vero [13]): 17 µM (active) | CC50 (Vero [14]): > 25 µM (active)

COc1ccc(C(=O)C(CN2CCOCC2)c2ccccc2)cc1 (centres undefined)
IC50 [9]: 4.99 µM (active) | IC50 [10]: 4.42 µM (active) | AC50 [15]: 7.29 µM (active) | AC50 [16]: 5.59 µM (active) | AC50 [17]: > 70 µM (inactive) | AC50 [18]: 11.2 µM (active)

O=C1c2cccc3cccc(c23)C(=O)N1CCN1CCN(CC(O)COCc2ccc(Cl)cc2)CC1 (centres undefined)
IC50 (Bcl-2-related protein A1): > 20 µM (inactive) | IC50 [1]: 2.89 µM (active) | IC50 [2]: 2.31 µM (active)

O=C(CO/N=C/c1ccccc1OC(F)F)NCc1cccs1
EC50 (Troponin, cardiac muscle): > 71.5 µM (inactive)

Cc1ccc(NC(=O)CN(C)CC(=O)Nc2cccc(F)c2)cc1[N+](=O)[O-]
IC50 [9]: 0.765 µM (active) | IC50 [10]: 0.487 µM (active) | AC50 [16]: 0.57 µM (active) | AC50 [17]: > 70 µM (inactive) | AC50 [18]: 10.1 µM (active)

CC1(C)Cc2c(sc(NC(=O)C(=O)NCCCN3CCOCC3)c2C(N)=O)CO1
IC50 (Bcl-2-related protein A1): > 20 µM (inactive) | IC50 [1]: 7.92 µM (active) | IC50 [2]: 2.14 µM (active)
